Test systems include SF-295 CNS; OVCAR-8 ovarian; CAKI-1 renal; HOP-92 NSCLC; MDA-N; ACHN renal; MDA-MB-231 breast; HOP-62 NSCLC; SK-MEL-5 melanoma; SF-268 CNS.
Assay in all cases: NCI-60 cell line screen, 48 h

Each structure is given as a SMILES string. “And” between values parts separate entries of the source, which are not always exact repeats. Identical values can stand only once.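 96-well plates; 48 h exposure; 5 concentrations. Endpoints by linear interpolation between flanking doses. Not reached: highest tested concentration assigned. GI50 = concentration required for 50% inhibition of growth. TGI marks complete inhibition of growth.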

For the compound `CN(C)C(=O)N1N[C@H](c2ccccc2)[C@@H]1c1ccccc1`, the TGI with SF-295 CNS, in the experiment on OVCAR-8 ovarian, with CAKI-1 renal, in the experiment on HOP-92 NSCLC, with MDA-N and in the experiment on ACHN renal was more than 100 µM in each case. Besides, the TGI in the experiment on MDA-MB-231 breast, in the experiment on HOP-62 NSCLC and with SK-MEL-5 melanoma was more than 100 µM throughout.

With `COc1ccc(C2N(c3ccc(C)c(N=C=O)c3)C(=O)N3C(c4ccc(OC)cc4)N(c4ccc(C)c(N=C=O)c4)C(=O)N23)cc1` (stereo not given), the TGI in the experiment on SF-268 CNS, in the experiment with SF-295 CNS, in the experiment on OVCAR-8 ovarian, in the experiment with CAKI-1 renal, in the experiment with HOP-92 NSCLC and in the experiment with MDA-N was more than 100 µM in each case. In addition, the TGI in the experiment with ACHN renal, with MDA-MB-231 breast, in the experiment on HOP-62 NSCLC and in the experiment on SK-MEL-5 melanoma was more than 100 µM in each case.

On to `c1ccc2c(c1)nnn2C1CCCCO1` (stereo not given), for which the TGI with SF-268 CNS, with SF-295 CNS, in the experiment on OVCAR-8 ovarian, in the experiment on CAKI-1 renal, in the experiment on HOP-92 NSCLC and with MDA-N was more than 100 µM each time. Also, the TGI with ACHN renal, with MDA-MB-231 breast, with HOP-62 NSCLC and with SK-MEL-5 melanoma was more than 100 µM each time.

As to `O=c1c2cccnc2oc2c(Cl)cc(-c3nn[nH]n3)cc12`, the TGI with SF-268 CNS, with OVCAR-8 ovarian, with CAKI-1 renal, in the experiment with HOP-92 NSCLC, in the experiment on MDA-N and in the experiment with ACHN renal was more than 100 µM each time. The TGI in the experiment with MDA-MB-231 breast, with HOP-62 NSCLC and with SK-MEL-5 melanoma was more than 100 µM throughout.

For the compound `COCC(C#N)NC1CC(OC2CC(O)(C(=O)CO)Cc3c(O)c4c(c(O)c32)C(=O)c2c(OC)cccc2C4=O)OC(C)C1O` (stereo not given), the TGI with SF-268 CNS is 0.691 µM; in the experiment on SF-295 CNS, 1.9 µM; with OVCAR-8 ovarian, 0.549 µM; in the experiment with CAKI-1 renal it was 0.285 µM; with HOP-92 NSCLC, 5 µM; with MDA-N, 0.349 µM. Moreover, the TGI with ACHN renal worked out at 5.46 µM; in the experiment on MDA-MB-231 breast, 0.729 µM; in the experiment with HOP-62 NSCLC, 0.261 µM; in the experiment on SK-MEL-5 melanoma, 0.154 µM.

Regarding `COC(=O)/C1=C/C=C\C[C@@]2(C)CC(c3ccoc3)OC(=O)[C@@H]2CC[C@H]1C` (stereo not given in full), the TGI in the experiment with SF-295 CNS, with OVCAR-8 ovarian, in the experiment with CAKI-1 renal, in the experiment on HOP-92 NSCLC, in the experiment on MDA-N and with ACHN renal was more than 25 µM each time. Further, the TGI in the experiment on MDA-MB-231 breast, in the experiment on HOP-62 NSCLC and with SK-MEL-5 melanoma was more than 25 µM in each case.

For `N#Cc1c(/C=C/c2ccccc2)c2c([nH]c1=S)CCCCC2`, the TGI with SF-268 CNS, in the experiment on SF-295 CNS, in the experiment with OVCAR-8 ovarian, in the experiment with CAKI-1 renal, with HOP-92 NSCLC and in the experiment with MDA-N was more than 100 µM each time. Moreover, the TGI in the experiment with ACHN renal, with MDA-MB-231 breast, in the experiment with HOP-62 NSCLC and in the experiment on SK-MEL-5 melanoma was more than 100 µM throughout.

For `CCC[N+](C)(C)CCCNC(=O)c1c(O)c2ccccc2[nH]c1=O`, the TGI in the experiment on SF-268 CNS, with SF-295 CNS, in the experiment on OVCAR-8 ovarian, with CAKI-1 renal, in the experiment on HOP-92 NSCLC and with MDA-N was more than 100 µM throughout. Moreover, the TGI with ACHN renal is more than 100 µM; with MDA-MB-231 breast, more than 100 µM; in the experiment with HOP-62 NSCLC, more than 100 µM; in the experiment with SK-MEL-5 melanoma it was 54.8 µM.

On to `N#Cc1ccc(-c2ccc(Cl)cc2)n(C2OC(CO)C(O)C(O)C2O)c1=S` (stereo not given), for which the GI50 was > 100 µM and 39.6 µM in the experiment on SF-268 CNS; > 100 µM and 14.6 µM with HOP-92 NSCLC. Moreover, the TGI is more than 100 µM in the experiment on SF-268 CNS; > 100 µM and 17.9 µM in the experiment on SF-295 CNS; more than 100 µM with OVCAR-8 ovarian; more than 100 µM in the experiment with CAKI-1 renal; > 100 µM and 51.5 µM in the experiment on HOP-92 NSCLC; more than 100 µM in the experiment with MDA-N. The TGI in the experiment on ACHN renal is more than 100 µM; with MDA-MB-231 breast, more than 100 µM; with HOP-62 NSCLC, > 100 µM and 36.3 µM; with SK-MEL-5 melanoma it was more than 100 µM.

As for `Cc1cnc2c(c1)C(=O)N(c1ccc(Oc3ccccc3)cc1)S2(=O)=O`, the TGI in the experiment on SF-268 CNS, with SF-295 CNS, in the experiment with OVCAR-8 ovarian, with CAKI-1 renal, with HOP-92 NSCLC and in the experiment on MDA-N was more than 100 µM throughout. In addition, the TGI in the experiment with ACHN renal, in the experiment on MDA-MB-231 breast, in the experiment with HOP-62 NSCLC and with SK-MEL-5 melanoma was more than 100 µM each time.

`COC(=O)N[C@@H]1C[C@H]2CC[C@]1(O[Si](C(C)C)(C(C)C)C(C)C)C(=O)C2`: the TGI in the experiment on SF-268 CNS was 28.6 µM; with SF-295 CNS, 39.7 µM; with OVCAR-8 ovarian it was 63.4 µM; with CAKI-1 renal, more than 100 µM; in the experiment with HOP-92 NSCLC it was 70.6 µM; in the experiment on MDA-N it was 83.4 µM. Besides, the TGI with ACHN renal was 45.7 µM; in the experiment with MDA-MB-231 breast, 76.5 µM; in the experiment with HOP-62 NSCLC, 46.4 µM; in the experiment on SK-MEL-5 melanoma, more than 100 µM.

As to `COc1cc2c3c(n(C)c(=O)c2cc1OC)-c1cc2c(cc1/C3=C\CCCCl)OCO2`, the TGI in the experiment on SF-268 CNS is more than 100 µM; with SF-295 CNS, 99.2 µM; with OVCAR-8 ovarian, more than 100 µM; in the experiment on CAKI-1 renal, more than 100 µM; with HOP-92 NSCLC, more than 100 µM; with MDA-N it was more than 100 µM. In addition, the TGI in the experiment with ACHN renal is more than 100 µM; in the experiment with MDA-MB-231 breast, more than 100 µM; with HOP-62 NSCLC, 62.8 µM; in the experiment with SK-MEL-5 melanoma, 70.6 µM. For the same compound, in the experiment on HOP-62 NSCLC, the GI50 is 17.5 µM.

For the compound `CC1(C)CCCCCC(O)C(O)CCC(C)(C)C1=O` (stereo not given), the TGI in the experiment with SF-268 CNS, in the experiment on SF-295 CNS, in the experiment on OVCAR-8 ovarian, in the experiment on CAKI-1 renal, in the experiment with HOP-92 NSCLC and with MDA-N was more than 100 µM in each case. For the same compound, the TGI in the experiment with ACHN renal, in the experiment on MDA-MB-231 breast, in the experiment with HOP-62 NSCLC and in the experiment on SK-MEL-5 melanoma was more than 100 µM in each case.

For the origin of these results see PubChem BioAssay (NCI).
